“And” between values parts separate entries of the source, which are not always exact repeats. Equal entries are not always repeated.
Target: Sigma non-opioid intracellular receptor 1 (Cavia porcellus, UniProt Q60492)
Assay: Binding Assay
From the text: Binding assay using sigma receptors.

Chain of Sigma non-opioid intracellular receptor 1 (Q60492 whole entry): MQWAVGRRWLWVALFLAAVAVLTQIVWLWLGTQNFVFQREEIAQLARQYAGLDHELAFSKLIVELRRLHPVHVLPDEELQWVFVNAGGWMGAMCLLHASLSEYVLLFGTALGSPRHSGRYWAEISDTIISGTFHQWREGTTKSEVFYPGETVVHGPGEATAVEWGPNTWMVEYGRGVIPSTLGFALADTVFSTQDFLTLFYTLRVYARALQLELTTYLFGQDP

SMILES	Ki
C=C(CC)c1ccc2c(c1)sc(=O)n2CCCCN1CCCCC1 [6-(but-1-en-2-yl)-3-[4-(piperidin-1-yl)butyl]-2,3-dihydro-1,3-benzothiazol-2-one, 12]	2.9 nM and 13 nM
CCCc1ccc2c(c1)sc(=O)n2CCN1C[C@]2(C)CCC[C@]2(C)C1 [3-{2-[(3aR,6aS)-3a,6a-dimethyl-octahydrocyclopenta[c]pyrrol-2-yl]ethyl}-6-propyl-2,3-dihydro-1,3-benzothiazol-2-one, 13]	> 1000 nM

— BindingDB's records for doi:10.1007/s00044-005-0131-1 (Universite De Lille, 2005)
